Experimental data: patent US20240270821A1, “GIP/GLP1/GCG TRI-RECEPTOR AGONISTS AND USES THEREOF” (priority 2023, published 2024)
Read-outs that look alike come from different tables or passages of the source. Starred links: 1 amine or outer side, 2 acyl side, 3 side chain; linkers in the order of their positions; H or OH if unused. Non-standard residues stand in square brackets, D forms with d. Groups on a side chain read outwards from the residue. *: point of attachment. C20 diacid = O=C(O)CCCCCCCCCCCCCCCCCCC(=O)*; C18 diacid = O=C(O)CCCCCCCCCCCCCCCCC(=O)*; Phe(4-CN) = N#Cc1ccc(C[C@H](N)C(=O)O)cc1; αMePhe(2-F) = C[C@](N)(Cc1ccccc1F)C(=O)O; γGlu = O=C(O)[C@H](CCC(=O)[*:2])N[*:1]; αMe4Pal = C[C@](N)(Cc1ccncc1)C(=O)O; αMeY = C[C@](N)(Cc1ccc(O)cc1)C(=O)O; αMeF = C[C@](N)(Cc1ccccc1)C(=O)O; 4Pal = N[C@@H](Cc1ccncc1)C(=O)O; αMeL = CC(C)C[C@](C)(N)C(=O)O; αMeS = C[C@](N)(CO)C(=O)O; Orn = NCCC[C@H](N)C(=O)O; AEEA = NCCOCCOCC(=O)O; Aib = CC(C)(N)C(=O)O

Key:
Format in all cases: cell-based
hGIPR [1] = target: T1, hGIPR (Homo sapiens, UniProt P48546); assay: Functional cAMP activity in the presence of 1% HSA; settings: read-out: cAMP Rel EC50, hGIPR
T1 sequence (P48546 22-466): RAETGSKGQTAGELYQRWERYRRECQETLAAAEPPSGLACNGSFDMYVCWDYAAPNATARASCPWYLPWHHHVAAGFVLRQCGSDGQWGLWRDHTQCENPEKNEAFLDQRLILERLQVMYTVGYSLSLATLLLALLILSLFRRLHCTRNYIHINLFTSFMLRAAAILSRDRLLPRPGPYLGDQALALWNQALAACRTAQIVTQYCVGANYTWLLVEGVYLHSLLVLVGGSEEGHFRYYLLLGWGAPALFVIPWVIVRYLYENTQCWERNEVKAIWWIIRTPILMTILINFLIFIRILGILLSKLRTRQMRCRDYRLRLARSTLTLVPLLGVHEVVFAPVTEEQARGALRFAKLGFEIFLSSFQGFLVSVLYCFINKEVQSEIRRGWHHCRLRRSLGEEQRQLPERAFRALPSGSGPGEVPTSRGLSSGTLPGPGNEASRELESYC

hGLP-1R [2] = target: T2, hGLP-1R (Homo sapiens, UniProt P43220); assay: Functional cAMP activity in the presence of 1% HSA; settings: read-out: cAMP Rel EC50, hGLP-1R
human GcgR = human GcgR (Homo sapiens, UniProt P47871); assay: Functional cAMP activity in the presence of 1% HSA; settings: read-out: cAMP Rel EC50, hGcgR
hGIPR [3] = target: T1, hGIPR; assay: Functional cAMP activation in the presence of 0.1% casein (no HSA); settings: read-out: Relative cAMP EC50, hGIPR;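 as to Relative cAMP EC50, hGIPR: intracellular cAMP rise after 30 min at 37 °C read by HTRF against a standard curve, scaled between buffer alone (0%) and top control ligand concentration (100%), four-parameter fit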;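 as to Relative cAMP EC50, hGLP-1R: intracellular cAMP rise after 30 min at 37 °C read by HTRF, normalized between buffer only (0%) and maximal control ligand (100%), four-parameter variable-slope fit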;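 as to Relative cAMP EC50, hGcgR: intracellular cAMP rise after 30 min at 37 °C, read by HTRF against a cAMP standard curve, scaled from buffer only (0%) to maximal control ligand response (100%)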
hGLP-1R [4] = target: T2, hGLP-1R; assay: as above; settings: read-out: Relative cAMP EC50, hGLP-1R
hGcgR = hGcgR (Homo sapiens, UniProt P47871); assay: as above; settings: read-out: Relative cAMP EC50, hGcgR;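 also: intracellular cAMP rise after 30 min at 37 °C, read by HTRF against a cAMP standard curve, scaled from buffer only (0%) to maximal control ligand response (100%)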
[5] = in the presence of 0.1% casein (no HSA), geometric mean

T2 sequence (P43220 24-463): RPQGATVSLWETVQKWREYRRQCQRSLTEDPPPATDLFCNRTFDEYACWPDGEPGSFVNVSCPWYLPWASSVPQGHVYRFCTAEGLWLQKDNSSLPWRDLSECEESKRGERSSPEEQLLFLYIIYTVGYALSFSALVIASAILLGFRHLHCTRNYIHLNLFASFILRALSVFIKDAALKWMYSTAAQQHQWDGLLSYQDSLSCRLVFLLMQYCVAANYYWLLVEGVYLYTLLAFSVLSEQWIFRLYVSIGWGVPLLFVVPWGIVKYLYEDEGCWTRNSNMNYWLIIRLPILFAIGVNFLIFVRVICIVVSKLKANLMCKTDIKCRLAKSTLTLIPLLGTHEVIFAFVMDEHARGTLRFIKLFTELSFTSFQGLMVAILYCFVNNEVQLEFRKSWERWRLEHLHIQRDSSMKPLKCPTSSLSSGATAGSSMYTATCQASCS
Sequence of human GcgR (P47871 26-477): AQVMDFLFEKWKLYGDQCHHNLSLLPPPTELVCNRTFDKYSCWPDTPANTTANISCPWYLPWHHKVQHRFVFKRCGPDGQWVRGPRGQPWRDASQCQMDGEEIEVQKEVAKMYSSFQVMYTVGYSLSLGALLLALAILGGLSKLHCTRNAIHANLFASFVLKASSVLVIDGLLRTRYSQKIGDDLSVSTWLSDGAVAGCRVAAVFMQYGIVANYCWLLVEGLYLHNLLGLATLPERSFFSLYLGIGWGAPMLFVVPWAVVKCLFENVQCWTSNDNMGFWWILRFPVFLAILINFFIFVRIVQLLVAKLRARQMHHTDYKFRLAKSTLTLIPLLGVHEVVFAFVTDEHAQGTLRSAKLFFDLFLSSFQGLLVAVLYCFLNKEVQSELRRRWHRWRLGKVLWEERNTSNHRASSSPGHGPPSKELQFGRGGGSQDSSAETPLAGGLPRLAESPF
Sequence of hGcgR (P47871 26-477): as above

Substance | EC50 (hGIPR [1]) [nM] | EC50 (hGLP-1R [2]) [nM] | EC50 (human GcgR) [nM] | EC50 (hGIPR [3]; [5]) [nM] | EC50 (hGLP-1R [4]; [5]) [nM] | EC50 (hGcgR; [5]) [nM] | EC50 (hGIPR [3]) [nM] | EC50 (hGLP-1R [4]) [nM] | EC50 (hGcgR) [nM] | EC50 (hGIPR [1]; HEK-293 clonal cells expressing hGIPR, in the presence of 1% HSA, geometric mean of relative EC50) [nM] | EC50 (hGLP-1R [2]; HEK-293 clonal cells expressing hGLP-1R, in the presence of 1% HSA, geometric mean of relative EC50) [nM] | EC50 (human GcgR; HEK-293 clonal cells expressing hGcgR, in the presence of 1% HSA, geometric mean of relative EC50) [nM]
H-Y[Aib]QGTFTSD[4Pal][αMeS]Q[αMeL]LD[Orn]K([dE-γGlu-C18 diacid])AQ[αMe4Pal]QFIE[αMeY]LIE[Aib]GPSSGAPPPSGGGE-NH2 [Example 1187] | 7.11 | 154 | 370 | 0.0648 | 1.06 | 1.81 | – | – | – | – | – | –
H-Y[Aib]QGTFTSD[4Pal][αMeS]Q[αMeL]LD[Orn]K([dE-γGlu-C18 diacid])AQ[αMe4Pal]QFIQ[αMeY]LIAGGPSSGEPPPSGGGE-NH2 [Example 1133] | 4.24 | 47.8 | 216 | 0.0719 | 0.768 | 2.95 | – | – | – | – | – | –
H-Y[Aib]QGTFTSD[4Pal][αMeS]Q[αMeL]LD[Orn]K([dE-γGlu-C18 diacid])AQ[αMe4Pal]QFIQ[αMeY]LIE[Aib]GPSSGAPPPSGGGE-NH2 [Example 1186] | 3.17 | 52.1 | 164 | 0.0404 | 0.594 | 1.46 | – | – | – | – | – | –
H-Y[Aib]QGTFTSD[4Pal][αMeS]Q[αMeL]LD[Orn]K([dE-γGlu-C18 diacid])AQ[αMe4Pal]QFIQ[αMeY]LIE[Aib]GPSSGEPPPSGGGE-NH2 [Example 1183] | 3.16 | 53.6 | 127 | 0.0484 | 0.769 | 1.38 | – | – | – | – | – | –
H-Y[Aib]QGTFTSD[4Pal][αMeS]Q[αMeL]LD[Orn]K([dE-γGlu-C18 diacid])AQ[αMe4Pal]QFIQ[αMeY]LLE[Aib]GPSSGAPPPSGGGE-NH2 [Example 1138] | 3.4 | 164 | 72.8 | 0.0491 | 1.93 | 1.01 | – | – | – | – | – | –
H-Y[Aib]QGTFTSD[Phe(4-CN)]S[Orn][αMeL]LDKK([AEEA-AEEA-γGlu-C18 diacid])AQ[Aib]AFIEYLLE[Aib]GPSSGAPPPSGS-NH2 [Example 178] | 47.3 | 397 | 816 | 0.34 | 4.01 | 7.29 | – | – | – | – | – | –
H-Y[Aib]QGTFTSD[Phe(4-CN)]S[Orn][αMeL]LDKK([AEEA-γGlu-C18 diacid])AQ[Aib]AFIEYLLE[Aib]GHSSGAPPPSGS-NH2 [Example 190] | 59.4 | 172 | 331 | 0.306 | 1.41 | 2.95 | – | – | – | – | – | –
H-Y[Aib]QGTFTSD[Phe(4-CN)]S[Orn][αMeL]LDKK([AEEA-γGlu-C18 diacid])AQ[Aib]AFIEYLLE[Aib]GPSSGAPPPSGS-NH2 [Example 191] | 47.4 | 230 | 344 | 0.422 | 2.48 | 2.11 | – | – | – | – | – | –
H-Y[Aib]QGT[αMeF]TSD[4Pal][αMeS]I[αMeL]LD[Orn]K([AEEA-γGlu-C18 diacid])AQ[αMe4Pal]EFI[dE][αMeY]LIEGGPSSGAPPPSGE-NH2 [Example 1164] | 1.17 | 63.5 | 359 | 0.0104 | 0.495 | 2.83 | – | – | – | – | – | –
H-Y[Aib]QGT[αMeF]TSD[4Pal][αMeS]I[αMeL]LD[Orn]K([AEEA-γGlu-C18 diacid])AQ[αMe4Pal]EFI[dE][αMeY]LIEGGPSSGAPPPSGSE-NH2 [Example 1166] | 1.1 | 65.6 | 427 | 0.00999 | 0.478 | 2.94 | – | – | – | – | – | –
H-Y[Aib]QGT[αMeF]TSD[4Pal][αMeS]I[αMeL]LD[Orn]K([AEEA-γGlu-C18 diacid])AQ[αMe4Pal]EFI[dE][αMeY]LIEGGPSSGEPPPSGSE-NH2 [Example 1167] | 1.22 | 89.2 | 274 | 0.011 | 0.636 | 2.16 | – | – | – | – | – | –
H-Y[Aib]QGT[αMeF]TSD[4Pal][αMeS]I[αMeL]LD[Orn]K([γGlu-γGlu-C18 diacid])AQ[αMe4Pal]EFI[dE][αMeY]LIEGGPSSGAPPPSGE-NH2 [Example 1170] | 0.663 | 50.2 | 249 | 0.00783 | 0.395 | 2.43 | – | – | – | – | – | –
H-Y[Aib]QGT[αMeF]TSD[4Pal][αMeS]I[αMeL]LD[Orn]K([γGlu-γGlu-C18 diacid])AQ[αMe4Pal]EFI[dE][αMeY]LIEGGPSSGAPPPSGSE-NH2 [Example 1172] | 0.7 | 45.5 | 303 | 0.00886 | 0.44 | 2.52 | – | – | – | – | – | –
H-Y[Aib]QGT[αMeF]TSD[4Pal][αMeS]I[αMeL]LD[Orn]K([γGlu-γGlu-C18 diacid])AQ[αMe4Pal]EFI[dE][αMeY]LIEGGPSSGEPPPSGE-NH2 [Example 1171] | 0.718 | 52.9 | 233 | 0.00953 | 0.529 | 2.19 | – | – | – | – | – | –
H-Y[Aib]QGT[αMeF]TSD[4Pal][αMeS]I[αMeL]LD[Orn]K([γGlu-γGlu-C18 diacid])AQ[αMe4Pal]EFI[dE][αMeY]LIEGGPSSGEPPPSGGGE-NH2 [Example 1175] | 0.768 | 60.7 | 282 | 0.00962 | 0.572 | 2.08 | – | – | – | – | – | –
H-Y[Aib]QGT[αMeF]TSD[4Pal][αMeS]I[αMeL]LD[Orn]K([γGlu-γGlu-C18 diacid])AQ[αMe4Pal]EFI[dE][αMeY]LIEGGPSSGEPPPSGSE-NH2 [Example 1173] | 0.764 | 59.1 | 254 | 0.00943 | 0.604 | 2.31 | – | – | – | – | – | –
H-Y[Aib]QGT[αMePhe(2-F)]TSDFSILLDKQAQK([AEEA-AEEA-γGlu-C20 diacid])AFIEYLLEGGPSSGEPPPSEG-NH2 [Example 346] | 28.3 | 514 | 4310 | 0.0738 | 1.17 | 15.6 | – | – | – | – | – | –
H-Y[Aib]QGT[αMePhe(2-F)]TSDYSILLDKAAQK([AEEA-γGlu-C20 diacid])[Orn]FIEYLIEGGPSSGEPPPSEG-NH2 [Example 306] | 95.3 | 126 | 2820 | 0.142 | 0.335 | 5.8 | – | – | – | – | – | –
H-Y[Aib]QGT[αMePhe(2-F)]TSDYSILLDKK([AEEA-γGlu-C18 diacid])AQ[Aib]AFIEFLEEGGPSSGAPPPSEG-NH2 [Example 412] | 12.5 | 46 | 467 | – | – | – | 0.0351 | 0.282 | 2.36 | – | – | –
H-Y[Aib]QGT[αMePhe(2-F)]TSDYSILLDKK([AEEA-γGlu-C18 diacid])AQ[Aib]AFIEYLEEGGPSSGAPPPEEG-NH2 [Example 399] | 19.6 | 42.8 | 560 | – | – | – | 0.0413 | 0.302 | 1.51 | – | – | –
H-Y[Aib]QGT[αMePhe(2-F)]TSDYSILLDKK([AEEA-γGlu-C18 diacid])AQ[Aib]AFIE[4Pal]LEEGGPSSGAPPPSEG-NH2 [Example 411] | 23.8 | 82.1 | 1170 | – | – | – | 0.058 | 0.709 | 3.94 | – | – | –
H-Y[Aib]QGT[αMePhe(2-F)]TSDYSILLDKK([γGlu-γGlu-C18 diacid])AQ[Aib]AFIEYLEEGGPSSGAPPPEEG-NH2 [Example 471] | 5.45 | 37.9 | 181 | – | – | – | 0.0296 | 0.317 | 2.19 | – | – | –
H-Y[Aib]QGT[αMePhe(2-F)]TSDYSILLDKQAAK([AEEA-AEEA-γGlu-C20 diacid])EFIEYLIEGGPSSGEPPPSEG-NH2 [Example 348] | 36.4 | 136 | 1250 | 0.127 | 0.346 | 3.9 | – | – | – | – | – | –
H-Y[Aib]QGT[αMePhe(2-F)]TSDYSILLDKQAQK([AEEA-AEEA-γGlu-C20 diacid])AFIEYLLEGGPSSGEPPPSEG-NH2 [Example 345] | 15.3 | 256 | 3300 | 0.0377 | 0.658 | 11.3 | – | – | – | – | – | –
H-Y[Aib]QGT[αMePhe(2-F)]TSDYSI[αMeL]LDKK([AEEA-AEEA-γGlu-C20 diacid])AA[Aib]AFIEYLIETGPSSGAPPPSEG-NH2 [Example 383] | – | – | – | 0.0406 | 0.258 | 1.27 | – | – | – | 32.3 | 79.1 | 530
